We go through three molecules from ChEMBL document CHEMBL2346549, “Vavilosides A1/A2-B1/B2, new furostane glycosides from the bulbs of Allium vavilovii with cytotoxic activity” (Bioorg Med Chem, 2013).

In general, IC50 refers to the concentration needed to halve the response being measured.

The test system of one assay is J774. Kind of assay: Cytotoxicity against mouse J774 cells assessed as growth inhibition after 72 hrs by MTT assay. In kind it is functional, cell-based. Particulars: J774, 72 h.
Another assay concerns WEHI-164. Kind of assay: Cytotoxicity against mouse WEHI164 cells assessed as growth inhibition after 72 hrs by MTT assay. It counts as functional, cell-based. The conditions noted are these: WEHI-164, 72 h. (In general: Tetrazolium assays rely on reduction of a dye to a coloured formazan, in cell work by metabolically active cells.)

In the case of `C[C@H](CCC1(O)O[C@H]2C[C@H]3[C@@H]4CC=C5C[C@@H](O)C[C@@H](O[C@@H]6OC[C@@H](O)[C@H](O)[C@H]6O[C@@H]6O[C@@H](C)[C@H](O)[C@@H](O)[C@H]6O)[C@]5(C)[C@H]4CC[C@]3(C)[C@H]2[C@@H]1C)CO[C@@H]1O[C@@H](C)[C@H](O)[C@@H](O)[C@H]1O` (mixture of isomers), the values for the IC50 in the assay on J774 and in the assay on WEHI-164 were 3.5 µg/mL and 3.1 µg/mL, respectively.
In the same order, the values of `C[C@H](CCC1(O)O[C@H]2C[C@H]3[C@@H]4CC=C5C[C@@H](O)C[C@@H](O[C@@H]6O[C@H](CO)[C@H](O)[C@H](O)[C@H]6O[C@@H]6O[C@@H](C)[C@H](O)[C@@H](O)[C@H]6O)[C@]5(C)[C@H]4CC[C@]3(C)[C@H]2[C@@H]1C)CO[C@@H]1O[C@@H](C)[C@H](O)[C@@H](O)[C@H]1O` (mixture of isomers) are 5.1 µg/mL and 4.7 µg/mL.
The like results for `C[C@H](CCC1(O)O[C@H]2C[C@H]3[C@@H]4CC=C5C[C@@H](O)C[C@@H](O[C@@H]6O[C@H](CO)[C@H](O)[C@H](O)[C@H]6O)[C@]5(C)[C@H]4CC[C@]3(C)[C@H]2[C@@H]1C)CO[C@@H]1O[C@H](CO)[C@@H](O)[C@H](O)[C@H]1O[C@@H]1O[C@@H](C)[C@H](O)[C@@H](O)[C@H]1O` (mixture of isomers) [ASCALONICOSIDE A1/A2] were, in that order, 4 µg/mL and 3.7 µg/mL.
